Drawing on PubChem BioAssay (NCI), this text covers TGI and GI50 for twelve compounds.

Among the test systems are SF-539 CNS; RPMI-8226 leukemia; SK-MEL-28 melanoma; TK-10 renal; HL-60(TB) leukemia; SF-295 CNS; HCT-116 colon; UACC-62 melanoma; SNB-19 CNS; UACC-257 melanoma.
Holding throughout (experiment): NCI anticancer screen, dose series, 48 h

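In this assay, cells in 96-well plates receive the compound at five concentrations for 48 hours. Endpoints are linearly interpolated between the surrounding concentrations. GI50 is the concentration that inhibits growth by half. TGI marks complete inhibition of growth.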 A value given as a limit tells only on which side of the number the result lay.

Regarding `NN/C(=N\S(=O)(=O)c1cc2ccccc2s1)Nc1ccc(Cl)cc1`, the TGI in the test on SF-539 CNS was found to be 29.8 µM; in the test with RPMI-8226 leukemia, 35.6 µM; in the test with SK-MEL-28 melanoma it was 75 µM; in the test on TK-10 renal, 51.2 µM; in the test with HL-60(TB) leukemia it was 48 µM; with SF-295 CNS it was 43.2 µM. The TGI with HCT-116 colon stood at 30.6 µM; in the test with UACC-62 melanoma, 35.5 µM; in the test with SNB-19 CNS, 64.6 µM; with UACC-257 melanoma it was 37.3 µM.

For `Cc1ccc([N+](=O)[O-])cc1S(=O)(=O)Nc1ccc(C2=NNC(c3ccccc3)C2)cc1` (stereo unspecified), the TGI in the test on SF-539 CNS is 89.2 µM; in the test with RPMI-8226 leukemia it was over 100 µM; with SK-MEL-28 melanoma it was over 100 µM; with TK-10 renal, over 100 µM; in the test on HL-60(TB) leukemia, 54.2 µM; in the test with SF-295 CNS, 21.7 µM. Besides, the TGI is 33.1 µM in the test with HCT-116 colon, 24.3 µM with UACC-62 melanoma, over 100 µM in the test with SNB-19 CNS and 40.2 µM with UACC-257 melanoma.

Take `Cc1nc(-c2cc3cc([N+](=O)[O-])ccc3oc2=O)cs1`: the TGI in the test with SF-539 CNS, in the test with RPMI-8226 leukemia, with SK-MEL-28 melanoma, in the test on TK-10 renal, in the test on HL-60(TB) leukemia and with SF-295 CNS was over 100 µM each time. Further, the TGI in the test with HCT-116 colon, in the test with UACC-62 melanoma, with SNB-19 CNS and with UACC-257 melanoma was over 100 µM in each case.

As for `CCN(CC)C(=S)N/N=C(/C)c1cccc(/C(C)=N\NC(=S)N(CC)CC)n1`, the TGI in the test with SF-539 CNS came out at 3.28 µM; in the test with RPMI-8226 leukemia it was 6.17 µM; in the test on SK-MEL-28 melanoma it was 3.88 µM; in the test on TK-10 renal, 11.7 µM; in the test on HL-60(TB) leukemia, 3.77 µM; with SF-295 CNS it was 6.7 µM. Further, the TGI is 11.4 µM with HCT-116 colon, 8.15 µM in the test on UACC-62 melanoma, 18.4 µM in the test on SNB-19 CNS and 11 µM in the test with UACC-257 melanoma.

For `COc1cc(CNCc2cc(OC)c(OC)c(OC)c2)cc(OC)c1OC`, the TGI is over 10 µM in the test on SF-539 CNS; over 10 µM in the test on RPMI-8226 leukemia; over 10 µM with SK-MEL-28 melanoma; over 10 µM in the test with TK-10 renal; over 6.74 µM with HL-60(TB) leukemia; over 10 µM in the test on SF-295 CNS. In addition, the TGI with HCT-116 colon, in the test on UACC-62 melanoma, in the test on SNB-19 CNS and in the test with UACC-257 melanoma was over 10 µM throughout.

As for `COc1cccc(-c2ccc3c4c2O[C@H]2C(=O)CC[C@@]5(O)[C@@H](C3)N(CC3CC3)CC[C@]425)c1`, the TGI was 29 µM in the test on SF-539 CNS; 30.9 µM in the test with RPMI-8226 leukemia; over 100 µM in the test on SK-MEL-28 melanoma; 32.2 µM with TK-10 renal; 40.5 µM with HL-60(TB) leukemia; 32.6 µM in the test on SF-295 CNS. Besides, the TGI with HCT-116 colon stood at 33.2 µM; in the test on UACC-62 melanoma, 32.7 µM; in the test on SNB-19 CNS it was 42.2 µM; in the test on UACC-257 melanoma, 43.2 µM.

For the compound `COc1cc(/C=C2/C[C@H]3[C@@H]4CC=C5C[C@@H](O)CC[C@]5(C)[C@H]4CC[C@]3(C)NC2=O)cc(OC)c1OC`, the TGI with SF-539 CNS was over 100 µM; in the test with RPMI-8226 leukemia, over 44.4 µM; with SK-MEL-28 melanoma it was over 100 µM; in the test with TK-10 renal it was over 82.1 µM; in the test on HL-60(TB) leukemia, over 100 µM; with SF-295 CNS it was over 65.3 µM. The TGI is over 66.3 µM in the test on HCT-116 colon, 75.4 µM with UACC-62 melanoma, over 84.7 µM with SNB-19 CNS and over 71.5 µM with UACC-257 melanoma.

As for `CCOC(=O)c1nc2ccc(C(F)(F)F)cc2nc1NCc1cc(OC)c(OC)c(OC)c1`, the TGI in the test on SF-539 CNS was over 100 µM; in the test with RPMI-8226 leukemia, 48 µM; in the test on SK-MEL-28 melanoma it was over 100 µM; in the test with TK-10 renal, over 100 µM; with HL-60(TB) leukemia, 83.4 µM; with SF-295 CNS, over 100 µM. Besides, the TGI in the test on HCT-116 colon, in the test on UACC-62 melanoma, in the test on SNB-19 CNS and in the test on UACC-257 melanoma was over 100 µM each time.

As for `COC1=C(OC)C(=O)C(Cc2c(C)nc3sc(C)cn23)=C(C)C1=O`, the TGI with SF-539 CNS was determined as 32.4 µM; with RPMI-8226 leukemia, 39.2 µM; in the test with SK-MEL-28 melanoma, 29.9 µM; with TK-10 renal it was 35.6 µM; in the test on HL-60(TB) leukemia, 29.8 µM; with SF-295 CNS it was 43.7 µM. Besides, the TGI in the test on HCT-116 colon turned out to be 49.9 µM; with UACC-62 melanoma, 27.4 µM; in the test on SNB-19 CNS, 36.5 µM; with UACC-257 melanoma it was 26.1 µM.

For the compound `CC1OC(OC2C(O[C@H]3CC[C@@]4(C)C(=CC[C@H]5[C@@H]6C[C@@H]7O[C@]8(CC[C@@H](CO)CO8)[C@@H](C)[C@@H]7[C@@]6(C)CC[C@@H]54)C3)OC(CO)C(O)C2OC2OC(CO)C(O)C(O)C2O)C(O)C(O)C1O` (stereo partly specified), the TGI in the test on SF-539 CNS is 3.07 µM; in the test with RPMI-8226 leukemia, 3.92 µM; with SK-MEL-28 melanoma, 3.46 µM; in the test on TK-10 renal, 3.08 µM; with HL-60(TB) leukemia, 2.8 µM; in the test with HCT-116 colon it was 3.02 µM. Further, the results for the TGI with UACC-62 melanoma, with SNB-19 CNS and with UACC-257 melanoma were 3.23 µM, 3.96 µM and 3.24 µM, respectively.

On to `O=C1CCC(c2ccc(Cl)cc2)=NN1c1nsc2ccccc12`, for which the TGI in the test with SF-539 CNS was over 100 µM; in the test on RPMI-8226 leukemia it was 42.6 µM; in the test with SK-MEL-28 melanoma it was over 100 µM; in the test on TK-10 renal, over 100 µM; in the test with HL-60(TB) leukemia, 46.3 µM; with HCT-116 colon it was 51.2 µM. The TGI was over 100 µM with UACC-62 melanoma, over 100 µM with SNB-19 CNS and 68.8 µM in the test with UACC-257 melanoma.

In the case of `CNc1ccc(C(=O)CC(O)CCC(C)C2OC(=O)CC(O)CC(=O)CC(O)CC(O)CC(O)CC(O)CC3(O)CC(O)C(C(=O)OC)C(CC(O[C@@H]4O[C@H](C)[C@@H](O)[C@H](N)[C@@H]4O)/C=C/C=C/C=C/C=C/C=C/C=C/C=C/C2C)O3)cc1` (stereo partly specified), the GI50 is 13.6 µM in the test on SF-539 CNS; 3.57 µM in the test on RPMI-8226 leukemia; 1.12 µM in the test on SK-MEL-28 melanoma; 2.9 µM with HL-60(TB) leukemia; 2.63 µM in the test with SF-295 CNS; 3.46 µM in the test on HCT-116 colon. Further, the results for the GI50 with UACC-62 melanoma, in the test with SNB-19 CNS and in the test on UACC-257 melanoma were 2.49 µM, 3.82 µM and 1.45 µM, respectively. Besides, the TGI in the test with SF-539 CNS is 47.9 µM; with RPMI-8226 leukemia, 54.5 µM; with SK-MEL-28 melanoma, 2.53 µM; in the test on HL-60(TB) leukemia it was 7.04 µM; in the test with SF-295 CNS it was 9.67 µM; in the test with HCT-116 colon, over 100 µM. The values for the TGI with UACC-62 melanoma, in the test with SNB-19 CNS and with UACC-257 melanoma were over 100 µM, over 100 µM and 3.18 µM, respectively.
